Results taken from patent US10653680B2, “Treatment of impulsivity-related disorders” (OXFORD UNIVERSITY INNOVATION LIMITED, priority 2016, dated 2020).

How the values were obtained:
rats = test: 5 Choice Serial Reaction Time Task (5-CSRTT); type: in vivo, rats (males; Long Evans)
Experimental: Testing was carried out in Vancouver (Canada) using rats (males; Long Evans from Charles River) which were given at least two weeks to acclimatise to the animal facility. They were housed in pairs on a 12 hour reverse light-dark cycle (lights off at 7 am). In the second week of acclimatisation, rats were handled briefly each day. […] For each task, there was then a habituation session to the operant boxes before training began.
Ebselen, cocaine and 2,5-dimethoxy-4-iodoamphetamine (DOI) were obtained from Sigma Aldrich, and MDL 100,907 was obtained from Tocris. Ebselen was dissolved in 0.5M DMSO and made up to injection volume (8 ml/kg) using 4% cyclodextrin. Cocaine and DOI were dissolved in 0.9% saline. MDL 100,907 was dissolved in 0.9% saline and the pH was adjusted to 6.25 using 1M NaOH and 0.1M HCl.
All data for the cognitive tasks are presented as mean+SEM change from baseline: • performance on drug day−performance on the previous day
The data were analysed with repeated measures ANOVA with dose as a within-subject factor. Where appropriate, post-hoc analysis was performed using Student's paired t-test.
This test was performed as described previously (Bari et al., Nature Protocols, 2008, 3(5), 759-767; Robbins, Psychopharmacology, 2002, 163(3), 362-380).
Fourteen rats were trained to respond to brief visual cues presented in one of five target areas with an inter-trial interval of 5 seconds. On the day of testing in the presence of ebselen, the inter-trial interval was lengthened to 7 seconds to cause a reliable increase in premature responding.
Ebselen and vehicle were administered by intraperitoneal (i.p.) injection 1 hour prior to testing. Three doses of ebselen (2, 5 or 10 mg/kg) were studied, administration being in a random order that was determined by a Latin square design. Rats were run five days a week, with the treatment day falling on day three.
Following ebselen, 3 doses of MDL 100,907 (0.01, 0.03 and 0.1 mg/kg, i.p.) were tested in a Latin square design with the first injection occurring one week after the final injection of ebselen. MDL 100,907 is a selective 5-HT2A antagonist. Rats were similarly run five days a week with injections falling on the third day, and the lengthened inter-trial interval was used only on the drug-administration day.
The Latin square design (for both the 5-CSRTT and rGT experiments) was counterbalanced, based on performance in the last training day of each task. A one week wash-out period was given between drug-administration days. A baseline session was performed both the day before and the day after treatment to ensure stable off-drug performance.

healthy participants = test: Cambridge Gambling Task (CGT); type: in vivo, human
Experimental: Twenty healthy participants (7 females, 13 males; mean age 25.1 years, range 20-38 years; mean BMI 22.7 kg/m^2, range 18.7-30.0 kg/m^2) were included in the study after giving full informed written consent.
Ebselen capsules and identical matching placebo (containing microcrystalline cellulose) were purchased from Shasun Pharmaceuticals Ltd. Participants were tested twice (seven days apart) receiving on one occasion ebselen and, on the other, placebo in a randomised, double-blind, cross-over design. Ebselen was administered in 6×200 mg capsules in three doses given over two days. The order of receiving either the ebselen or the placebo was randomised.
On the day before cognitive testing, participants took the first dose at 1 pm and the second dose at 10 pm. The final dose was taken around 3 hrs prior to cognitive testing. Participants were sent text message reminders a few minutes before they were due to take medication, and were asked to confirm receipt of the messages. The cognitive tasks were carried out immediately after a magnetic resonance spectroscopy study.
The Cambridge Gambling Task (CGT) from the Cambridge Neuropsychological Test Automated Battery (CANTAB, version 3.0.0, Cambridge Cognition Ltd., Cambridge, UK) (Rogers et al.; Neuropsychopharmacology, 1999, 20, 322-333; Clark et al.; Brain, 2008, 131, 1311-1322) assesses decision-making and risk-taking behaviour outside a learning context. In each trial, participants are shown ten boxes at the top of the screen, with some boxes being red and some being blue. The ratio of red to blue boxes varies from 9:1; 8:2; 7:3; 6:4; 5:5 and vice versa in a pseudo-random order.
Participants are informed that a yellow token is hidden inside one of the boxes and asked to indicate the colour box in which the token is most likely to be hidden, by pressing the colour (RED or BLUE) in a response panel at the bottom of the screen. Following their response, the participants indicate confidence in their selection by betting a proportion of points they are allocated (starting with 100 points). […] On each trial five bets are offered, and each bet represents a fixed percentage of the current total points score (5, 25, 50, 75 and 95%). Possible bets are presented sequentially in a box on the right of the display and participants touch the box to select the bet. If correct, the bet value is added to their total points on the left of the panel, and if incorrect, it is subtracted from the total points.
Participants are asked to accumulate as many points as possible. […] Participants perform the task in four blocks of two separate conditions, ascending and descending bet value (the condition order is counterbalanced across participants). In the ascending condition, bets increase at 2.5 s time intervals from 5% to 95% until participants make their selection. This means that if a participant bets at the first value presented, then they bet only 5% of their total points, and if they wait for the highest value, they bet 95% of their total points. In the descending condition bets start from 95% and decrease to 5%. Low bets in the ascend condition and high bets in the descend condition reveal an impulsive betting strategy, while high bets in both conditions reveal a risk taking or reward seeking strategy.
From the first stage of the task (selecting the likely colour of the box in which the token is hidden), the outcome measures are deliberation time and quality of decision making. Deliberation time is the mean latency from presentation of coloured boxes to participant selection. Quality of decision making refers to the proportion of trials on which the more likely outcome is chosen. From the gamble stage, the outcome measures are risk taking, risk adjustment and delay aversion. Risk taking refers to the mean proportion of current points that the subject stakes on each gamble when the more likely outcome is selected, and can be regarded as an index of reward seeking or loss aversion. […]

## O=c1c2ccccc2[se]n1-c1ccccc1 [Ebselen, 2-phenyl-1,2-benzisoselenazol-3(2H)-one]
rats; ebselen 2 mg/kg i.p. vs vehicle, p=0.158
  premature responding: No effect
rats; ebselen 5 mg/kg i.p. vs vehicle, p=0.011
  premature responding: statistically significant decreases
rats; ebselen 10 mg/kg i.p. vs vehicle, p=0.032
  premature responding: statistically significant decreases
rats; ebselen 2, 5, 10 mg/kg i.p. 1 hour prior to testing, vs vehicle, ANOVA p=0.049, inter-trial interval 7 s
  premature responding: decreased premature responding in a dose-dependent manner
rats; ebselen 2, 5, 10 mg/kg i.p., p=0.192-0.805
  any other measures of the 5-CSRTT: No effects
Healthy participants; ebselen vs placebo
  effect on deliberation time: no significant effects
  effect on quality of decision making: no significant effects
  effect on reward seeking/risk taking: increase
  effect on risk adjustment: no significant effects
Healthy participants; ebselen vs placebo, irrespective of probability of favourable outcome and token ratio
  effect on delay aversion: significant decrease
Healthy participants; human, ebselen 6x200 mg in three doses over two days, final dose around 3 hrs before testing, vs placebo p = 0.010
  Delay aversion (%), Mean ± SEM: 9.0 ± 2.14%
Healthy participants; human, same regimen, vs placebo p = 0.046
  Reward seeking (%), Mean ± SEM: 63.9 ± 1.45%
Healthy participants; human, same regimen, vs placebo p = 0.107
  Risk adjustment, Mean ± SEM: 2.1 ± 0.18
Healthy participants; human, same regimen, vs placebo p = 0.131
  Deliberation time (ms), Mean ± SEM: 1408 ± 78 ms
Healthy participants; human, same regimen, vs placebo p = 0.155
  Quality of decision making (%), Mean ± SEM: 99.3 ± 0.3%
